For eight compounds, IC50 results are on record in patent publication US20120015938A1, “1,4-BENZODIAZEPIN-2-ON DERIVATIVES” (MSD K.K., priority 2009, published 2012).

This assay deals with T1, Human DGAT1 (Homo sapiens, UniProt O75907).
T1 construct: made in house; host or cells: Pichia pastoris (printed 'Pichia pastris'), vector pPICZA; membrane fraction
T1 sequence (O75907 1-488): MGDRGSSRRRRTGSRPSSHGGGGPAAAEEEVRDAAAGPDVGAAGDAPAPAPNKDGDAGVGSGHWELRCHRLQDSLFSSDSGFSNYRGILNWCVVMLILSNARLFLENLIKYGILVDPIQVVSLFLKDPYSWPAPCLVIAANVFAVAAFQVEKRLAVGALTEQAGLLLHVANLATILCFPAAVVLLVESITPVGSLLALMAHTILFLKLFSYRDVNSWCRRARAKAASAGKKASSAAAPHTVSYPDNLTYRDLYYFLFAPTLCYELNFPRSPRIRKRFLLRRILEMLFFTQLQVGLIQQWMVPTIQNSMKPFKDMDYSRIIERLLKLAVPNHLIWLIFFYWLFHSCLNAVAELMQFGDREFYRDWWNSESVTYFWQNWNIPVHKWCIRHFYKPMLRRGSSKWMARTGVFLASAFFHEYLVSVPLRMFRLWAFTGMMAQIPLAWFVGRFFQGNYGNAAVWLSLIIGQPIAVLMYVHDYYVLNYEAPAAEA
Description: DGAT1 Inhibitory Activity Test. The assay is classed as biochemical. Conditions: DGAT1-expressed yeast membrane fraction, [14C]-oleoyl-CoA, room temperature 30 minutes. How it is done: Cloning of Human DGAT1 Gene and Expression in Yeast
Human DGAT1 genes were amplified by PCR using primers described below from human cDNA library (Clontech).
The amplified human DGAT1 genes were introduced into a yeast expression vector pPICZA (Invitrogen). The resultant expression plasmid was introduced into an yeast (Pichia pastris) by electroporation to produce a recombinant yeast. The recombination yeast was cultured in the presence of 0.5% methanol for 72 hours, and the cells were crushed using glass beads in 10 mM Tris pH 7.5, 250 mM sucrose and 1 mM EDTA, followed by adjusting the membrane fraction by centrifugation to use the adjusted membrane fraction as an enzyme source.
To the reaction liquid having the following composition: 100 mM Tris pH 7.5, 100 mM MgCl2, 100 mM sucrose, 40 μM dioelin, 15 μM [^14C]-oleoyl-CoA, 0.25 μg of test substance, DGAT1-expressed yeast membrane fraction, was added, and the mixture having a volume of 100 μl was incubated at room temperature for 30 minutes. To the reaction liquid, 100 μl of 2-propanol/heptan/H2O (80:20:2) was added, the mixture was stirred well, followed by adding 200 μl of heptane and further stirring the mixture. After centrifugation, the heptane layer was collected, ethanol/0.1N NaOH/H2O (50:5:45) was added, the mixture was thus stirred, followed by re-centrifuging the mixture and collecting the heptane layer. After exsiccation of the resultant heptane layer, 100 μl of Microscint 0 (PerkinElmer) was added, and the radioactivity was measured with a liquid scintillation counter. The inhibitory activity was calculated from the following formula:
Inhibition rate=100−(radioactivity in case of addition of test compound−background)/(radioactivity in case of addition of no test compound−background)×100 wherein the background means the radioactivity in case of addition of no membrane fraction.

One may read the IC50 as the midpoint of a concentration-inhibition curve.

As to `CN1C(=O)C(NC(=O)C(C)(C)NC(=O)c2ccc(F)cc2)N=C(Cc2ccc(OC(F)(F)F)cc2)c2ccccc21` (single isomer, unassigned) [Example 3 Enantiomer A, N-[1,1-dimethyl-2-({1-methyl-2-oxo-5-[4-(trifluoromethoxy)benzyl]-2,3-dihydro-1H-1,4-benzodiazepin-3-yl}amino)-2-oxoethyl]-4-fluorobenzamide], the 50% inhibitory concentration (IC50) worked out at 181 nM. With `CN1C(=O)C(NC(=O)C(C)(C)NC(=O)c2ccc(F)cc2)N=C(Cc2ccc(OC(F)(F)F)cc2)c2cc(F)ccc21` (single isomer, unassigned) [Example 1 Enantiomer A, 4-fluoro-N-[2-({7-fluoro-1-methyl-2-oxo-5-[4-(trifluoromethoxy)benzyl]-2,3-dihydro-1H-1,4-benzodiazepin-3-yl}amino)-1,1-dimethyl-2-oxoethyl]benzamide] the figure was 483 nM; with `CN1C(=O)C(NC(=O)C(C)(C)NC(=O)c2ccccc2)N=C(Cc2ccc(OC(F)(F)F)cc2)c2cc(F)ccc21` (single isomer, unassigned) [Example 2 Enantiomer A, N-[2-({7-fluoro-1-methyl-2-oxo-5-[4-(trifluoromethoxy)benzyl]-2,3-dihydro-1H-1,4-benzodiazepin 3-yl}amino)-1,1-dimethyl-2-oxoethyl]benzamide], 569 nM; with `CN1C(=O)C(NC(=O)C(C)(C)NC(=O)c2ccc(F)cc2)N=C(Cc2ccc(OC(F)(F)F)cc2)c2ccccc21` (single isomer, unassigned) [Example 3 Enantiomer B, N-[1,1-dimethyl-2-({1-methyl-2-oxo-5-[4-(trifluoromethoxy)benzyl]-2,3-dihydro-1H-1,4-benzodiazepin-3-yl}amino)-2-oxoethyl]-4-fluorobenzamide], 125 nM. For `CN1C(=O)C(NC(=O)C(C)(C)NC(=O)c2ccc(F)cc2)N=C(Cc2ccc(OC(F)(F)F)cc2)c2cc(F)ccc21` (single isomer, unassigned) [Example 1 Enantiomer B, 4-fluoro-N-[2-({7-fluoro-1-methyl-2-oxo-5-[4-(trifluoromethoxy)benzyl]-2,3-dihydro-1H-1,4-benzodiazepin-3-yl}amino)-1,1-dimethyl-2-oxoethyl]benzamide], the 50% inhibitory concentration (IC50) is 133 nM. For `CN1C(=O)C(NC(=O)C(C)(C)NC(=O)c2ccccc2)N=C(Cc2ccc(OC(F)(F)F)cc2)c2ccccc21` (single isomer, unassigned) [Example 4 Enantiomer A, N-[1,1-dimethyl-2-({1-methyl-2-oxo-5-[4-(trifluoromethoxy)benzyl]-2,3-dihydro-1H-1,4-benzodiazepin-3-yl}amino)-2-oxoethyl]benzamide] the value was 308 nM; for `CN1C(=O)C(NC(=O)C(C)(C)NC(=O)c2ccccc2)N=C(Cc2ccc(OC(F)(F)F)cc2)c2ccccc21` (single isomer, unassigned) [Example 4 Enantiomer B, N-[1,1-dimethyl-2-({1-methyl-2-oxo-5-[4-(trifluoromethoxy)benzyl]-2,3-dihydro-1H-1,4-benzodiazepin-3-yl}amino)-2-oxoethyl]benzamide], 127 nM. For `CN1C(=O)C(NC(=O)C(C)(C)NC(=O)c2ccccc2)N=C(Cc2ccc(OC(F)(F)F)cc2)c2cc(F)ccc21` (single isomer, unassigned) [Example 2 Enantiomer B, N-[2-({7-fluoro-1-methyl-2-oxo-5-[4-(trifluoromethoxy)benzyl]-2,3-dihydro-1H-1,4-benzodiazepin 3-yl}amino)-1,1-dimethyl-2-oxoethyl]benzamide] the value was 164 nM.
